From publication PMC7251097, “Aspartate/asparagine-β-hydroxylase: a high-throughput mass spectrometric assay for discovery of small molecule inhibitors” (Scientific Reports, 2020)
Like-named read-outs stand apart in the source and are kept apart here.

Molecular target: T1, His6-AspH315–758 (human aspartate/asparagine-β-hydroxylase, AspH) (Homo sapiens, UniProt Q12797)
T1 construct: N-Terminally His6-tagged human AspH315–758 (His6-AspH315–758) was produced in E. coli BL21 (DE3) cells; made in house; host or cells: E. coli BL21 (DE3), pET-28a(+) vector
T1 sequence (Q12797 315-758): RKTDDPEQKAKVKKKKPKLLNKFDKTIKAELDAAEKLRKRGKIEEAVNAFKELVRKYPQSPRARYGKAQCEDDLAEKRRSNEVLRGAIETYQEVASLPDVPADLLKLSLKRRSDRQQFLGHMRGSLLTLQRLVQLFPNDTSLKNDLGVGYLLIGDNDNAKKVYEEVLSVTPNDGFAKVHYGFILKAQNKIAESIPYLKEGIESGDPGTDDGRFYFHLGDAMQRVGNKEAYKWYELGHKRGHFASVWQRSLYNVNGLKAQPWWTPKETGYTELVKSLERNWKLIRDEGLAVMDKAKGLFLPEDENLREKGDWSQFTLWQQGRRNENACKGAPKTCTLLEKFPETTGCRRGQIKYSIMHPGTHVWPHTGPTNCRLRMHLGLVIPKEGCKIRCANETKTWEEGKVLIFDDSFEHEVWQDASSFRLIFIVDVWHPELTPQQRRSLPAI
Test: SPE-MS AspH inhibition assay (LOPAC screen at fixed 20 μM and IC50 dose-response), hydroxylation of cyclic peptide hFX-CP101–119
Assay type: biochemical

[1] = LOPAC compound at fixed 20 uM, plate 1, normalised to DMSO and 2,4-PDCA controls
[2] = LOPAC compound at fixed 20 uM, substrate conversion, plate 1
[3] = LOPAC compound at 20uM, plate 3, conversion of substrate peptide
[4] = LOPAC Plate 4, compound at 20 uM, substrate conversion
[5] = LOPAC compound at 20uM, plate 2, conversion of substrate peptide
[6] = LOPAC compound at 20uM, plate 2, normalised to DMSO and 2,4-PDCA controls
[7] = AspH activity, fixed compound concentration 20 μM, initial LOPAC screen, 0.5%v/v DMSO

C=CCn1c(=O)c2c(nc(-c3ccc(S(=O)(=O)O)cc3)n2C)n(C)c1=O
Plate 1 (% inhibition) [1]: -6.98% | Plate 1 (% conversion) [2]: 38.22%

Cl.NC1(C(=O)O)CCCCC1
Plate 1 (% inhibition) [1]: 1.04% | Plate 1 (% conversion) [2]: 35.52%

Cl.NC1(C(=O)O)CC1
Plate 1 (% inhibition) [1]: -3.97%

Clc1ccc(C(c2ccccc2Cl)C(Cl)Cl)cc1 (centres unmarked)
Plate 1 (% inhibition) [1]: -5.18% | Plate 1 (% conversion) [2]: 37.61%

COc1ccccc1N1CCNCC1.Cl
% conversion: 37.50% | % inhibition (20 µM): -3.01%

COc1ccc2c(c1)c(CC(=O)O)c(C)n2Cc1ccc(Cl)cc1
Plate 1 (% inhibition) [1]: 5.27% | Plate 1 (% conversion) [2]: 34.10%

CC1CNCCN1S(=O)(=O)c1cccc2cnccc12.Cl.Cl (centres unmarked)
Plate 3 (% conversion) [3]: 5.68%

C[N+]1(C)CCN(c2ccccc2)CC1.[I-]
Plate 2 (% conversion): 36.09% | Plate 2 (% inhibition) (20 µM): -0.39%

CSc1nc(N)c2ncn([C@@H]3O[C@H](COP(=O)([O-])OP(=O)([O-])OP(=O)([O-])[O-])[C@@H](O)[C@H]3O)c2n1.[Na+].[Na+].[Na+].[Na+]
Plate 1 (% inhibition) [1]: 63.66% | Plate 1 (% conversion) [2]: 14.49%

Br.Br.N=C(N)SCCN
Plate 1 (% inhibition) [1]: -13.77% | Plate 1 (% conversion) [2]: 40.50%

CSc1nc(N)c2ncn([C@@H]3O[C@H](COP(=O)([O-])OP(=O)([O-])[O-])[C@@H](O)[C@H]3O)c2n1.O.[Na+].[Na+].[Na+]
Plate 1 (% inhibition) [1]: 16.28% | Plate 1 (% conversion) [2]: 30.40%

CN1C2CCC1CC(OC(=O)c1c[nH]c3ccccc13)C2.Cl (centres unmarked)
% conversion: 31.98%

C[N+]1(C)C2CCC1CC(OC(=O)c1c[nH]c3ccccc13)C2.[I-] (centres unmarked)
% conversion [4]: 36.85%

C[C@]12CC[C@@H](O)C[C@@H]1CC[C@@H]1[C@@H]2CC[C@]2(C)[C@@H](C(=O)CO)CC[C@@H]12
Plate 3 (% conversion): 42.66%

Cl.N=C(N)c1ccc(CS(=O)(=O)F)cc1
Plate 3 (% conversion): 34.27%

Cl.NCCc1ccc(S(=O)(=O)F)cc1
Plate 1 (% conversion): 34.69% | Plate 1 (% inhibition): 3.52%

COc1ccc2[nH]c3c(c2c1)CCNC3
Plate 1 (% conversion): 36.98% | Plate 1 (% inhibition) [1]: -3.29%

Cc1cccc(C#Cc2ccccc2)n1.Cl
Plate 3 (% conversion): 40.82%

Oc1cc(-c2ccccc2)nc2nc(Cl)ccc12
Plate 1 (% conversion): 39.07% | Plate 1 (% inhibition): -9.52%

Nc1ncnc2c1c(-c1ccc(Oc3ccccc3)cc1)cn2C1CCCC1
Plate 2 (% conversion) [5]: 45.34% | Plate 2 (% inhibition) [6]: -28.02%

COCc1nc2c([nH]1)c(=O)n(C)c(=O)n2CC(C)C
Plate 3 (% conversion) [3]: 35.26%

Cl.Nc1c2c(nc3ccccc13)CCCC2
Plate 1 (% conversion): 23.39%

C[C@H]1CCC/C=C/[C@@H]2C[C@H](O)C[C@H]2[C@H](O)/C=C/C(=O)O1
Plate 1 (% conversion): 38.82% | Plate 1 (% inhibition): -8.79%

C[N+](C)(C)CCOP(=O)([O-])OP(=O)([O-])OC[C@H]1O[C@@H](n2ccc(N)nc2=O)[C@H](O)[C@@H]1O.[Na+]
Plate 2 (% conversion) [5]: 36.80% | Plate 2 (% inhibition) [6]: -2.53%

Cl.Nc1ccn([C@@H]2O[C@H](CO)[C@@H](O)[C@@H]2O)c(=O)n1
Plate 1 (% inhibition) [1]: -2.68% | Plate 1 (% conversion) [2]: 36.77%

Cl.O[Si](CCCN1CCCCC1)(c1ccc(F)cc1)C1CCCCC1 (centres unmarked)
Plate 2 (% conversion) [5]: 40.91% | Plate 2 (% inhibition) [6]: -14.81%

C[C@@H](N)Cc1cnc[nH]1.Cl.Cl
Plate 2 (% conversion): 36.76% | Plate 2 (% inhibition) (20 µM): -2.41%

COC(=O)[C@@H](N)Cc1ccc(O)c(O)c1.Cl
Plate 2 (% conversion) [5]: 10.54% | Plate 2 (% inhibition) [6]: 75.90%

COc1cccc(C(=O)NCCN2CCN(c3ccc(Cl)cc3)CC2)c1
Plate 1 (% inhibition) [1]: -7.35% | Plate 1 (% conversion) [2]: 38.34%

CNCCc1c[nH]c2ccc(O)cc12.O=C(O)C(=O)O
Plate 3 (% conversion): 9.71%

Cc1ccc(S(=O)(=O)N[C@@H](Cc2ccccc2)C(=O)CCl)cc1
% inhibition (LOPAC Plate 4, compound at 20 uM): -4.78% | % conversion [4]: 38.10%

COC(=O)[C@@H](N)CCCN=C(N)N[N+](=O)[O-].Cl
Plate 3 (% conversion) [3]: 34.54%

CCCCCCN(CCCCCC)C(=O)Cc1c(-c2ccc(F)cc2)[nH]c2ccccc12
Plate 2 (% conversion): 35.52% | Plate 2 (% inhibition) (20 µM): 1.31%

Cc1ccc(S(=O)(=O)N[C@@H](CCCCN)C(=O)CCl)cc1.Cl
% conversion: 33.91%

Cl.NOCC(=O)O.NOCC(=O)O
Plate 1 (% inhibition) [1]: -6.07% | Plate 1 (% conversion) [2]: 37.91%

Nc1ncnc2c1ncn2[C@@H]1O[C@H](COP(=O)(O)OP(=O)(O)OP(=O)(O)OP(=O)(O)OC[C@H]2O[C@@H](n3cnc4c(N)ncnc43)[C@H](O)[C@@H]2O)[C@@H](O)[C@H]1O
Plate 2 (% conversion) [5]: 27.58% | Plate 2 (% inhibition) [6]: 25.01%

Cl.Cl.Fc1ccc([C@@H]2CCNC[C@H]2COc2ccc3c(c2)OCO3)cc1.Fc1ccc([C@@H]2CCNC[C@H]2COc2ccc3c(c2)OCO3)cc1.O
Plate 1 (% inhibition) [1]: -22.48% | Plate 1 (% conversion) [2]: 43.42%

Br.CCCN1CCc2cc(O)cc3c2[C@H]1Cc1ccc(O)c(O)c1-3
Plate 2 (% conversion) [5]: 6.67% | Plate 2 (% inhibition) [6]: 87.47%

Br.CN1CCc2cc(O)cc3c2[C@H]1Cc1ccc(O)c(O)c1-3
Plate 2 (% conversion) [5]: 6.73% | Plate 2 (% inhibition) [6]: 87.29%

C[C@H](O)[C@H](O)[C@H]1CNc2nc(N)[nH]c(=O)c2N1.Cl
% conversion [4]: 25.86%

Nc1ncnc2c1ncn2[C@@H]1O[C@H](COP(=O)(O)CP(=O)(O)OP(=O)([O-])[O-])[C@@H](O)[C@H]1O.[Li+].[Li+]
Plate 3 (% conversion) [3]: 17.86%

5-Bromo-2-deoxyuridine
Plate 1 (% conversion): 35.50% | Plate 1 (% inhibition): 1.12%

10058-F4
Plate 1 (% conversion): 30.76% | Plate 1 (% inhibition): 15.22%

COC(=O)C(N)Cc1ccc(Cl)cc1.Cl (racemic)
Plate 1 (% inhibition) [1]: 1.48% | Plate 1 (% conversion) [2]: 35.38%

CC(N)c1cccc(Cl)c1Cl.Cl (racemic)
Plate 2 (% conversion): 38.94% | Plate 2 (% inhibition) (20 µM): -8.91%

CC(N)(Cc1ccc(O)c(O)c1)C(=O)O (racemic)
Plate 3 (% conversion) [3]: 9.94%

CCCCCCCCCC(=O)NC(CN1CCOCC1)[C@H](O)c1ccccc1.Cl (mixture of isomers)
% conversion [4]: 45.09%

NC(Cc1cc(O)c(O)cc1O)C(=O)O (racemic) [6-Hydroxy-DL-DOPA, reference compound]
Inhibition at 20 µM [%]: 103.1% | Plate 2 (% conversion): 1.44% | Plate 2 (% inhibition) (20 µM): 103.09%

CN1[C@H]2C[C@H](OC(=O)[C@H](CO)c3ccccc3)C[C@@H]1[C@@H](O)C2 (racemic) [(+/-)-Anisodamine]
Plate 2 (% conversion): 36.39% | Plate 2 (% inhibition) (20 µM): -1.30%

NC(CP(=O)(O)O)C(=O)O (racemic) [(±)-2-Amino-3-phosphonopropionic acid]
Plate 1 (% conversion): 38.27% | Plate 1 (% inhibition): -7.14%

NC(CCP(=O)(O)O)C(=O)O (racemic) [(±)-2-Amino-4-phosphonobutyric acid]
Plate 1 (% conversion): 37.71% | Plate 1 (% inhibition): -5.48%

NC(CCCP(=O)(O)O)C(=O)O (racemic) [(±)-2-Amino-5-phosphonopentanoic acid]
Plate 1 (% conversion): 39.06% | Plate 1 (% inhibition) [1]: -9.50%

Br.Oc1cc2c(c(Cl)c1O)CCNCC2c1ccccc1 (racemic) [(±)-6-Chloro-PB hydrobromide, reference compound]
Inhibition at 20 µM [%] [7]: 98.8% | % conversion [4]: 2.77%

Br.CCCN(CCC)C1CCc2ccc(O)cc2C1 (racemic) [(±)-7-Hydroxy-DPAT hydrobromide]
Plate 2 (% conversion) [5]: 37.82% | Plate 2 (% inhibition) [6]: -5.57%

CC1CCN=C(N)S1.Cl (racemic) [(±)-AMT hydrochloride]
Plate 1 (% conversion): 36.89% | Plate 1 (% inhibition): -3.04%

NCC(CC(=O)O)c1ccc(Cl)cc1 (racemic) [(±)-Baclofen]
Plate 1 (% inhibition) [1]: -1.99% | Plate 1 (% conversion) [2]: 36.54%

COC(=O)C1=C(C)NC(C)=C([N+](=O)[O-])C1c1ccccc1C(F)(F)F (racemic) [(±)-Bay K 8644]
Plate 1 (% inhibition) [1]: -22.02% | Plate 1 (% conversion) [2]: 43.27%

CN(C)CCC(c1ccc(Br)cc1)c1ccccn1.O=C(O)/C=C\C(=O)O (racemic) [(±)-Brompheniramine maleate]
Plate 1 (% inhibition) [1]: 8.96% | Plate 1 (% conversion) [2]: 32.86%

CC(C)(C)NCC(O)COc1cccc2[nH]c(=O)[nH]c12.Cl (racemic) [(±)-CGP-12177A hydrochloride]
Plate 2 (% conversion) [5]: 36.58% | Plate 2 (% inhibition) [6]: -1.88%

Br.C=CCN1CCc2c(cc(O)c(O)c2Cl)C(c2ccccc2)C1 (racemic) [(±)-Chloro-APB hydrobromide, reference compound]
Inhibition at 20 µM [%] [7]: 95.8% | Plate 2 (% conversion) [5]: 3.87% | Plate 2 (% inhibition) [6]: 95.82%

CN(C)CCC(c1ccc(Cl)cc1)c1ccccn1.O=C(O)/C=C\C(=O)O (racemic) [(±)-Chlorpheniramine maleate]
Plate 1 (% inhibition) [1]: -6.31% | Plate 1 (% conversion) [2]: 37.99%

CNCC(O)c1ccc(O)c(O)c1.Cl (racemic) [(±)-Epinephrine hydrochloride]
Plate 2 (% conversion) [5]: 6.18% | Plate 2 (% inhibition) [6]: 88.94%
